Patent US20250302832A1, “PYRAZINE DERIVATIVES AND USES THEREOF” (FOGHORN THERAPEUTICS INC., priority 2022, published 2025)

Key:
[1] = molecular target: T1, HiBit-BRG1 fusion protein (Homo sapiens, UniProt P51532); assay: HiBiT-BRG1 cell-based degradation assay (Nano-Glo HiBiT lytic detection, 24 h); conditions: HeLa cell line expressing HiBit-BRG1 and LgBit; for Dmax: read-out: BRG1 HiBit Degradation Maximum (%); for DC50: read-out: BRMG1 HiBit Degradation IC50
T1 construct: expressed in transfected cells
T1 sequence (P51532 whole entry, the tested form may be a part): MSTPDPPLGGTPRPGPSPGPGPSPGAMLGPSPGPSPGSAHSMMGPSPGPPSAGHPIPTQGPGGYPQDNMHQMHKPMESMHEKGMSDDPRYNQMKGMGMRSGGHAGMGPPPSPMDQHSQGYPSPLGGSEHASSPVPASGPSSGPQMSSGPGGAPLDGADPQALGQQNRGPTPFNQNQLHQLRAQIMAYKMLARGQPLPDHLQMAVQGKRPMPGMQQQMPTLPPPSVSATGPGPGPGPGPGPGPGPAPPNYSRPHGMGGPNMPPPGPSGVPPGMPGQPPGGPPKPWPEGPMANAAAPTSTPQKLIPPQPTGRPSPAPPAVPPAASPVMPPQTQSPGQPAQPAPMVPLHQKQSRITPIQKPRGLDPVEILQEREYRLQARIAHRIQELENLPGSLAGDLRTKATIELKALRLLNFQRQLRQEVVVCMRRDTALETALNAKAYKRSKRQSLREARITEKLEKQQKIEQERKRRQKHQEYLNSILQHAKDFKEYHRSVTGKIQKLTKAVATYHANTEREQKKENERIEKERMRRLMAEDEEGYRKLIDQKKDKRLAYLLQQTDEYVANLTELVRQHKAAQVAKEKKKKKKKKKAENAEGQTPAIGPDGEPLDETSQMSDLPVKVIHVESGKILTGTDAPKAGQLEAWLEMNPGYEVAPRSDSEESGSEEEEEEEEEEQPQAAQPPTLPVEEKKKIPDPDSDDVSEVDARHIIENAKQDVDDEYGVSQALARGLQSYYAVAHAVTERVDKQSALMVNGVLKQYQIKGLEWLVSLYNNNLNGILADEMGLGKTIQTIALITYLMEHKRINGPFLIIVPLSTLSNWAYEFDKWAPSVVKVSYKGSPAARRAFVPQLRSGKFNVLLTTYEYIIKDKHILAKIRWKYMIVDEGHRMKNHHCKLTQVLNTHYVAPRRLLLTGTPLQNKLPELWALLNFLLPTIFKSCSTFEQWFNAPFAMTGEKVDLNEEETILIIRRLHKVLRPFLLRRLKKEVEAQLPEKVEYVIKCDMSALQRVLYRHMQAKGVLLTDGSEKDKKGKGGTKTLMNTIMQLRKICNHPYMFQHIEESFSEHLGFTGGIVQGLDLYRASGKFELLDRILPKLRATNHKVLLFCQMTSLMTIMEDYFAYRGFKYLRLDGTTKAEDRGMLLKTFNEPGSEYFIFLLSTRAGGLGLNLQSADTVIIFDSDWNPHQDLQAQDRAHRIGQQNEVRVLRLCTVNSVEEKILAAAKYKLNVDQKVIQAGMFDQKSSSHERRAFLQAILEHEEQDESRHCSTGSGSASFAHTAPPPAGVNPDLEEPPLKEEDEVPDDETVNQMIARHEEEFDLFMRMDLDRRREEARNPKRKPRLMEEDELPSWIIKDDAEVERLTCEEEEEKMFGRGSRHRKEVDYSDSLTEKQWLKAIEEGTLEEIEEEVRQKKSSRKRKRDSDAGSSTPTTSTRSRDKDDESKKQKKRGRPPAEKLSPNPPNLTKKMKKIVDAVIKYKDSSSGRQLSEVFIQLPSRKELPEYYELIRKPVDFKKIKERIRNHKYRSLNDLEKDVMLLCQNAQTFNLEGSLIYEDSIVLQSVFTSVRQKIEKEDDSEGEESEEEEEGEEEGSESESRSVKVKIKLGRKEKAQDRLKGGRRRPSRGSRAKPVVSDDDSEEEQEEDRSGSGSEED
How it was run: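 Luminescence from HiBiT/LgBiT complementation after lytic detection reagent was read following 24 h compound exposure of HeLa cells stably carrying HiBiT-BRG1 plus LgBiT (5000 cells/well). Signal scaled to % degradation using DMSO-treated cells as 0% and cells given 2 μM known BRM/BRG1 degrader as 100%.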

HiBit-BRM fusion protein = molecular target: T2, HiBit-BRM fusion protein (Homo sapiens, UniProt P51531); assay: HiBiT-BRM cell-based degradation assay (Nano-Glo HiBiT lytic detection, 24 h); conditions: HeLa cell line expressing HiBiT-BRM; for DC50: read-out: BRM HiBit Degradation IC50
T2 construct: expressed in transfected cells
T2 sequence (P51531 whole entry, the tested form may be a part): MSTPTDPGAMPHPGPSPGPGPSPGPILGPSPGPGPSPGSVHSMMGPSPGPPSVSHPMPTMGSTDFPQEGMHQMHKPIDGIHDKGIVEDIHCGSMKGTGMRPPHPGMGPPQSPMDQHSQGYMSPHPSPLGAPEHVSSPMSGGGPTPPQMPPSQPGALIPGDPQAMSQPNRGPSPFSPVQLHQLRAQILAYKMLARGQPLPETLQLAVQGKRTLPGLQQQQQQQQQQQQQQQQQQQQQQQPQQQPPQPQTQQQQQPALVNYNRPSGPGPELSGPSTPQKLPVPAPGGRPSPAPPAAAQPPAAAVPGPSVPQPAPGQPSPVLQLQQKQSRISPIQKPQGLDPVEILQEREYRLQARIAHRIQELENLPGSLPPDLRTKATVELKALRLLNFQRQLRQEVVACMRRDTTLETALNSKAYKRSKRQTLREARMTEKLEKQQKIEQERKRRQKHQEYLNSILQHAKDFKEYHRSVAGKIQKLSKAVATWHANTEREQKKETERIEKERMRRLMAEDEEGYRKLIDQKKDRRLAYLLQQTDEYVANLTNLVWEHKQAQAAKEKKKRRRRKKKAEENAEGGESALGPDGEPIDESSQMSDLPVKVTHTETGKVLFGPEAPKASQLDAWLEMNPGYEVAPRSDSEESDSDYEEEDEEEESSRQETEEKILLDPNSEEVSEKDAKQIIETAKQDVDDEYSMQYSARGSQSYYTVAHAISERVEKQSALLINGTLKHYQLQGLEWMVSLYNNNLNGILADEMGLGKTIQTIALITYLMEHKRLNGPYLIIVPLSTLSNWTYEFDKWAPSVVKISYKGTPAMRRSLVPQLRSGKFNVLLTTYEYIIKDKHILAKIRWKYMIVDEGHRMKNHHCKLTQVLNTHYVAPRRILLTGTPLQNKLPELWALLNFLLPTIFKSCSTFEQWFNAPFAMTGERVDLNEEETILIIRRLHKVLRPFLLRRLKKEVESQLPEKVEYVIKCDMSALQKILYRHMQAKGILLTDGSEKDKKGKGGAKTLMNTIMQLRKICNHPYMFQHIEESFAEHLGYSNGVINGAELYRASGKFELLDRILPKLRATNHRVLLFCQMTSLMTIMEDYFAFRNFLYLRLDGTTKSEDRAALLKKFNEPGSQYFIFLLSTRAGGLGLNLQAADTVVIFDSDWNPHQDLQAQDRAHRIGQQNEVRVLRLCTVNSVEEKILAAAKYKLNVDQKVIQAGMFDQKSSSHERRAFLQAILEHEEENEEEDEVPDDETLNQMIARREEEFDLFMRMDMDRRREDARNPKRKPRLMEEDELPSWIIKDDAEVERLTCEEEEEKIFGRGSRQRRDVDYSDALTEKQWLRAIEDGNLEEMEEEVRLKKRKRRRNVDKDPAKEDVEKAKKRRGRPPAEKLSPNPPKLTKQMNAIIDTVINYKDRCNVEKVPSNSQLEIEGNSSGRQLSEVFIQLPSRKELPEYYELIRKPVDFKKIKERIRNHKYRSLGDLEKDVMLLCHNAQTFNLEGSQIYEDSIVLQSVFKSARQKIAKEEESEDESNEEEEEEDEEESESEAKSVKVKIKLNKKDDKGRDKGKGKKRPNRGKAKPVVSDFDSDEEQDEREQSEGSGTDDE
How it was run: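 Luminescence from LgBiT complementation quantified remaining HiBiT-BRM in stably expressing HeLa cells after 24 h compound exposure (top final dose 30 μM, 3-fold, 10 points, duplicate). Degradation expressed as percent relative to DMSO and a 2 μM reference degrader.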

Cc1ncsc1-c1ccc([C@H](C)NC(=O)[C@@H]2C[C@@H](O)CN2C(=O)[C@@H](c2cc(OCCN3CC(n4ccc5nnc(-c6ccccc6O)cc54)C3)no2)C(C)C)cc1 [Compound 31, (2S,4R)-4-hydroxy-1-[(2R)-2-[3-(2-{3-[3-(2-hydroxyphenyl)pyrrolo[3,2-c]pyridazin-5-yl]azetidin-1-yl}ethoxy)-1,2-oxazol-5-yl]-3-methylbutanoyl]-N-[(1S)-1-[4-(4-methyl-1,3-thiazol-5-yl)phenyl]ethyl]pyrrolidine-2-carboxamide]
Dmax [1]: < 50%
BRM HiBit Degradation Maximum (%) (HiBit-BRM fusion protein): B (“B” indicates maximum degradation ≥50%)
DC50 (HiBit-BRM fusion protein): > 0.01 µM

Cc1ncsc1-c1ccc([C@H](C)NC(=O)[C@@H]2C[C@@H](O)CN2C(=O)[C@@H](c2cc(N3CC[C@@H](c4cc5nnc(-c6ccccc6O)cc5n4C4(C)CC4)C3)no2)C(C)C)cc1 [Compound 81, (2S,4R)-4-hydroxy-1-((R)-2-(3-((R)-3-(3-(2-hydroxyphenyl)-5-(1-methylcyclopropyl)-5H-pyrrolo[3,2-c]pyridazin-6-yl)pyrrolidin-1-yl)isoxazol-5-yl)-3-methylbutanoyl)-N-((S)-1-(4-(4-methylthiazol-5-yl)phenyl)ethyl)pyrrolidine-2-carboxamide]
Dmax [1]: > 75%
DC50 [1]: < 0.01 µM
BRM HiBit Degradation Maximum (%) (HiBit-BRM fusion protein): A (“A” indicates maximum degradation ≥75%)
DC50 (HiBit-BRM fusion protein): < 0.01 µM

Cc1ncsc1-c1ccc([C@H](C)NC(=O)[C@@H]2C[C@@H](O)CN2C(=O)[C@@H](c2cc(-c3cnc(N4CC[C@@H](c5cc6nnc(-c7ccccc7O)cc6n5C5CCC5)C4)nc3)no2)C(C)C)cc1 [Compound 102, (2S,4R)-1-((R)-2-(3-(2-((R)-3-(5-cyclobutyl-3-(2-hydroxyphenyl)-5H-pyrrolo[3,2-c]pyridazin-6-yl)pyrrolidin-1-yl)pyrimidin-5-yl)isoxazol-5-yl)-3-methylbutanoyl)-4-hydroxy-N-((S)-1-(4-(4-methylthiazol-5-yl)phenyl)ethyl)pyrrolidine-2-carboxamide]
Dmax [1]: < 50%
BRM HiBit Degradation Maximum (%) (HiBit-BRM fusion protein): A (“A” indicates maximum degradation ≥75%)
DC50 (HiBit-BRM fusion protein): < 0.01 µM

CC[C@H](C)NC(=O)[C@@H]1C[C@@H](O)CN1C(=O)C(c1cc(N2CC3(CC(c4cc5nnc(-c6ccccc6O)cc5n4C4CCC4)C3)C2)no1)C(C)C (stereo partly drawn) [Compound 51, (2S,4R)-N-((S)-sec-butyl)-1-(2-(3-(6-(5-cyclobutyl-3-(2-hydroxyphenyl)-5H-pyrrolo[3,2-c]pyridazin-6-yl)-2-azaspiro[3.3]heptan-2-yl)isoxazol-5-yl)-3-methylbutanoyl)-4-hydroxypyrrolidine-2-carboxamide]
Dmax [1]: < 50%
BRM HiBit Degradation Maximum (%) (HiBit-BRM fusion protein): A (“A” indicates maximum degradation ≥75%)
DC50 (HiBit-BRM fusion protein): > 0.01 µM

Cc1ncsc1-c1ccc([C@H](C)NC(=O)[C@@H]2C[C@@H](O)CN2C(=O)[C@@H](c2cc(OCCN3CC(n4cc(C(F)F)c5nnc(-c6ccccc6O)cc54)C3)no2)C(C)C)cc1 [Compound 32, (2S,4R)-1-((R)-2-(3-(2-(3-(7-(difluoromethyl)-3-(2-hydroxyphenyl)-5H-pyrrolo[3,2-c]pyridazin-5-yl)azetidin-1-yl)ethoxy)isoxazol-5-yl)-3-methylbutanoyl)-4-hydroxy-N—((S)-1-(4-(4-methylthiazol-5-yl)phenyl)ethyl)pyrrolidine-2-carboxamide]
Dmax [1]: < 50%
BRM HiBit Degradation Maximum (%) (HiBit-BRM fusion protein): C (“C” indicates maximum degradation <50%)

Cc1ncsc1-c1ccc([C@H](C)NC(=O)[C@@H]2C[C@@H](O)CN2C(=O)[C@@H](c2cc(-c3cnc(N4CCC(c5cc6nnc(-c7ccccc7O)cc6n5C5CCC5)CC4)nc3)no2)C(C)C)cc1 [Compound 47]
BRG1 HiBit Degradation Maximum (%) [1]: C (“C” indicates maximum degradation <50%)
BRM HiBit Degradation Maximum (%) (HiBit-BRM fusion protein): A (“A” indicates maximum degradation ≥75%)
DC50 (HiBit-BRM fusion protein): < 0.01 µM

Cc1ncsc1-c1ccc([C@H](C)NC(=O)[C@@H]2C[C@@H](O)CN2C(=O)[C@@H](c2cc(-c3cnc(N4CC[C@@H](c5cc6nnc(-c7ccccc7O)cc6n5C5CC5)C4)nc3)no2)C(C)C)cc1 [Compound 36, (2S,4R)-1-((R)-2-(3-(2-((R)-3-(5-cyclopropyl-3-(2-hydroxyphenyl)-5H-pyrrolo[3,2-c]pyridazin-6-yl)pyrrolidin-1-yl)pyrimidin-5-yl)isoxazol-5-yl)-3-methylbutanoyl)-4-hydroxy-N—((S)-1-(4-(4-methylthiazol-5-yl)phenyl)ethyl)pyrrolidine-2-carboxamide]
Dmax [1]: > 75%
DC50 [1]: < 0.01 µM
BRM HiBit Degradation Maximum (%) (HiBit-BRM fusion protein): A (“A” indicates maximum degradation ≥75%)
DC50 (HiBit-BRM fusion protein): < 0.01 µM

Cc1ncsc1-c1ccc([C@H](C)NC(=O)[C@@H]2C[C@@H](O)CN2C(=O)[C@@H](c2cc(N(C)CCN3CC(c4cc5nnc(-c6ccccc6O)cc5[nH]4)C3)no2)C(C)C)cc1 [Compound 2, (2S,4R)-4-hydroxy-1-((R)-2-(3-((2-(3-(3-(2-hydroxyphenyl)-5H-pyrrolo[3,2-c]pyridazin-6-yl)azetidin-1-yl)ethyl)(methyl)amino)isoxazol-5-yl)-3-methylbutanoyl)-N-((S)-1-(4-(4-methylthiazol-5-yl)phenyl)ethyl)pyrrolidine-2-carboxamide]
Dmax [1]: < 50%
BRM HiBit Degradation Maximum (%) (HiBit-BRM fusion protein): A (“A” indicates maximum degradation ≥75%)
DC50 (HiBit-BRM fusion protein): > 0.1 µM

Cc1ncsc1-c1ccc([C@H](C)NC(=O)[C@@H]2C[C@@H](O)CN2C(=O)[C@@H](c2cc(N3CCC4(CCC(c5cc6nnc(-c7ccccc7O)cc6n5C5CC5)CC4)CC3)no2)C(C)C)cc1 [Compound 85, (2S,4R)-1-((R)-2-(3-(9-(5-cyclopropyl-3-(2-hydroxyphenyl)-5H-pyrrolo[3,2-c]pyridazin-6-yl)-3-azaspiro[5.5]undecan-3-yl)isoxazol-5-yl)-3-methylbutanoyl)-4-hydroxy-N-((S)-1-(4-(4-methylthiazol-5-yl)phenyl)ethyl)pyrrolidine-2-carboxamide]
Dmax [1]: > 75%
DC50 [1]: > 0.01 µM
BRM HiBit Degradation Maximum (%) (HiBit-BRM fusion protein): A (“A” indicates maximum degradation ≥75%)
DC50 (HiBit-BRM fusion protein): < 0.01 µM

Cc1ncsc1-c1ccc([C@H](C)NC(=O)[C@@H]2C[C@@H](O)CN2C(=O)[C@@H](c2cc(N3CC4(CC(c5cc6nnc(-c7ccccc7O)cc6n5CC5CC5)C4)C3)no2)C(C)C)cc1 [Compound 77, (2S,4R)-1-((R)-2-(3-(6-(5-(cyclopropylmethyl)-3-(2-hydroxyphenyl)-5H-pyrrolo[3,2-c]pyridazin-6-yl)-2-azaspiro[3.3]heptan-2-yl)isoxazol-5-yl)-3-methylbutanoyl)-4-hydroxy-N-((S)-1-(4-(4-methylthiazol-5-yl)phenyl)ethyl)pyrrolidine-2-carboxamide]
Dmax [1]: < 50%
BRM HiBit Degradation Maximum (%) (HiBit-BRM fusion protein): A (“A” indicates maximum degradation ≥75%)
DC50 (HiBit-BRM fusion protein): < 0.01 µM

CC(C)C(C(=O)N1C[C@H](O)C[C@H]1C(=O)NC1CCC1)c1cc(N2CC3(CC(c4cc5nnc(-c6ccccc6O)cc5n4C4CCC4)C3)C2)no1 (stereo partly drawn) [Compound 118, (2S,4R)-N-cyclobutyl-1-(2-(3-(6-(5-cyclobutyl-3-(2-hydroxyphenyl)-5H-pyrrolo[3,2-c]pyridazin-6-yl)-2-azaspiro[3.3]heptan-2-yl)isoxazol-5-yl)-3-methylbutanoyl)-4-hydroxypyrrolidine-2-carboxamide]
Dmax [1]: < 50%
BRM HiBit Degradation Maximum (%) (HiBit-BRM fusion protein): A (“A” indicates maximum degradation ≥75%)
DC50 (HiBit-BRM fusion protein): > 0.01 µM

Cc1ncsc1-c1ccc([C@H](C)NC(=O)[C@@H]2C[C@@H](O)CN2C(=O)[C@@H](c2cc(N3CCC(CN4CC(c5cc6nnc(-c7ccccc7O)cc6n5C)C4)CC3)no2)C(C)C)cc1 [Compound 9, (2S,4R)-4-hydroxy-1-((R)-2-(3-(4-((3-(3-(2-hydroxyphenyl)-5-methyl-5H-pyrrolo[3,2-c]pyridazin-6-yl)azetidin-1-yl)methyl)piperidin-1-yl)isoxazol-5-yl)-3-methylbutanoyl)-N-((S)-1-(4-(4-methylthiazol-5-yl)phenyl)ethyl)pyrrolidine-2-carboxamide]
Dmax [1]: < 50%
BRM HiBit Degradation Maximum (%) (HiBit-BRM fusion protein): A (“A” indicates maximum degradation ≥75%)
DC50 (HiBit-BRM fusion protein): > 0.01 µM

Cc1ncsc1-c1ccc([C@H](C)NC(=O)[C@@H]2C[C@@H](O)CN2C(=O)[C@@H](c2cc(N3CCC(CN4CC(c5cc6nnc(-c7ccccc7O)cc6[nH]5)C4)CC3)no2)C(C)C)cc1 [Compound 4, (2S,4R)-4-hydroxy-1-((R)-2-(3-(4-((3-(3-(2-hydroxyphenyl)-5H-pyrrolo[3,2-c]pyridazin-6-yl)azetidin-1-yl)methyl)piperidin-1-yl)isoxazol-5-yl)-3-methylbutanoyl)-N-((S)-1-(4-(4-methylthiazol-5-yl)phenyl)ethyl)pyrrolidine-2-carboxamide]
Dmax [1]: > 50%
DC50 [1]: > 0.1 µM
BRM HiBit Degradation Maximum (%) (HiBit-BRM fusion protein): A (“A” indicates maximum degradation ≥75%)
DC50 (HiBit-BRM fusion protein): > 0.01 µM

CC(C)C(C(=O)N1C[C@H](O)C[C@H]1C(=O)N[C@@H](C)c1ccccc1)c1cc(N2CC3(CC(c4cc5nnc(-c6ccccc6O)cc5n4C4CCC4)C3)C2)no1 (stereo partly drawn) [Compound 49, (2S,4R)-1-[2-(3-{6-[5-cyclobutyl-3-(2-hydroxyphenyl)pyrrolo[3,2-c]pyridazin-6-yl]-2-azaspiro[3.3]heptan-2-yl}-1,2-oxazol-5-yl)-3-methylbutanoyl]-4-hydroxy-N-[(1S)-1-phenylethyl]pyrrolidine-2-carboxamide]
Dmax [1]: < 50%
BRM HiBit Degradation Maximum (%) (HiBit-BRM fusion protein): A (“A” indicates maximum degradation ≥75%)
DC50 (HiBit-BRM fusion protein): > 0.01 µM
